Data on twelve molecules can be found in PMC8633346, “Engineering of a fluorescent chemogenetic reporter with tunable color for advanced live-cell imaging” (Nature Communications, 2021).

Molecules are shown by their SMILES.

In one assay the target is T1, pFAST (Halorhodospira halophila, UniProt P16113, A30V/C69G/D97P/F96I/G21E/G25R/K17N/M100R/M109L/Q41L/Q99S/S117R/S72T/T101G/V83A/Y94W/Y98T).
T1 construct: gene pyp; engineered PYP variant; changes relative to FAST: K17N, G21E, G25R, A30V, Q41L, S72T, V83A, M95T, M109L, S117R (M95T restores T95 of PYP); N-terminal His-tag, E. coli Rosetta (DE3) pLys, Ni-NTA; FAST 14 kDa
T1 sequence (P16113 1-125 K17N/G21E/G25R/A30V/Q41L/C69G/S72T/V83A/Y94W/F96I/D97P/Y98T/Q99S/M100R/T101G/M109L/S117R): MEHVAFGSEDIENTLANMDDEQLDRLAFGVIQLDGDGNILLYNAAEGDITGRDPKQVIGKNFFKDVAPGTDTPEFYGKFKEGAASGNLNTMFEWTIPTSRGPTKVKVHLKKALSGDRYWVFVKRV
In words: fluorescence titration, one-site fit.
Details: not given
The molecule `Cc1cc(C=C2SC(=S)NC2=O)cc(C)c1O` [HBR-3,5DM, 4-hydroxy-3,5-dimethylbenzylidene rhodanine] had a Kd of 10 nM.
`COc1cc(C=C2SC(O)=NC2=S)cc(OC)c1O` [HBIR-3,5DOM, (4-hydroxy-3,5-dimethoxylbenzylidene)-4-thioxothiazolidin-2-one]: the equilibrium dissociation constant (Kd) came out at 40 nM.
For the molecule `COc1cc(/C=C2\SC(=O)NC2=O)cc(OC)c1O` [HBT-3,5DOM, (4-hydroxy-3,5-dimethoxybenzylidene)thiazolidine-2,4-one], the equilibrium dissociation constant (Kd) came to 200 nM.
Consider `Cc1cc(/C=C2\SC(=S)N(CC(=O)O)C2=O)cc(C)c1O` [HBRAA-3,5DM, 5-((4-hydroxy-3,5-dimethylbenzylidene)-4-oxo-2-thioxothiazolidin-3-yl) acetic acid], for which the equilibrium dissociation constant (Kd) was 1800 nM.
Molecule `Cc1cc(C=C2SC(=N)NC2=O)cc(C)c1O` [HBP-3,5DM, (4-hydroxy-3,5-dimethylbenzylidene)-2-iminothiazolidin-4-one] returned a dissociation constant Kd of 150 nM.
Same read-out and setting: the same measure for `Cc1cc(C=C2SC(=O)NC2=O)cc(C)c1O` [HBT-3,5DM, (4-hydroxy-3,5-dimethylbenzylidene)thiazolidine-2,4-dione]: 170 nM.
In turn, `Cc1cc(C=C2SC(=N)NC2=O)ccc1O` [HBP-3M, (4-hydroxy-3-methylbenzylidene)-2-iminothiazolidin-4-one] showed a Kd of 220 nM. This Kd and that of the molecule before are within 1.5-fold of each other.
`Cc1cc(C=C2OC(=O)NC2=O)ccc1O` [HBO-3M, (4-hydroxy-3-methylbenzylidene)oxazolidine-2,4-dione] yielded a dissociation constant (Kd) of 430 nM.
In the case of `Cc1cc(C=C2OC(=O)NC2=O)cc(C)c1O` [HBO-3,5DM, (4-hydroxy-3,5-dimethylbenzylidene)oxazolidine-2,4-dione], binding was put at a Kd of 2400 nM.
For `COc1cc(C=C2SC(=N)NC2=O)cc(OC)c1O` [HBP-3,5DOM, (4-hydroxy-3,5-dimethoxybenzylidene)-2-iminothiazolidin-4-one], the Kd was 1900 nM.
Take `COc1cc(C=C2SC(=S)NC2=O)cc(OC)c1O` [HBR-3,5DOM, 4-hydroxy-3,5-dimethoxybenzylidene rhodanine]: the Kd amounted to 60 nM. This Kd is about 32-fold lower than that of the molecule before.

The next assay addresses T2, pFAST (Halorhodospira halophila, UniProt P16113, K17N/G21E/G25R/A30V/Q41L/C69G/S72T/V83A/Y94W/F96I/D97P/Y98T/Q99S/M100R/T101G/M109L/S117R).
T2 construct: gene pyp; engineered PYP variant; changes relative to FAST: K17N, G21E, G25R, A30V, Q41L, S72T, V83A, M95T, M109L, S117R (M95T restores T95 of PYP); N-terminal His-tag, E. coli Rosetta (DE3) pLys, Ni-NTA; FAST 14 kDa
T2 sequence (P16113 1-125 K17N/G21E/G25R/A30V/Q41L/C69G/S72T/V83A/Y94W/F96I/D97P/Y98T/Q99S/M100R/T101G/M109L/S117R): T1 sequence (P16113 1-125 K17N/G21E/G25R/A30V/Q41L/C69G/S72T/V83A/Y94W/F96I/D97P/Y98T/Q99S/M100R/T101G/M109L/S117R)
In words: fluorescence titration, one-site fit. As to conditions: PBS pH 7.4. The assay is classed as binding.
With `Cc1cc(C=C2SC(=O)NC2=O)ccc1O` [HBT-3M, (4-hydroxy-3-methylbenzylidene)thiazolidine-2,4-dione], the KD result is “KD) values of their assembly with pFAST are indicated into brackets”.
